Measured values: patent US12509460B2 (Skyhawk Therapeutics, Inc., priority 2019, dated 2025)

How the values were obtained:
[1] = system: mHTT protein in GM04724 (CAG 70/20) Huntington's disease patient lymphoblast cells; experiment: mHTT protein assay, 2B7-MW1 assay via Mesoscale Discovery (MSD); type: cell-based, human; conditions: GM04724 Huntington's disease patient lymphoblasts
Procedure, shortened: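 Signal from the 2B7-MW1 antibody pair on MSD, rising with polyQ length and smaller HTT fragments, measured mHTT after 48 h compound exposure (0.6 nM–10 μM) in GM04724 cells. A parallel replicate plate gave CellTiter Glo viability.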

[2] = Quantitative splicing assay (HTT), qPCR; type: cell-based, human; conditions: Homo sapiens, GM04724, 24 h, GM04724 lymphoblasts, qPCR, read-out: HTT Splicing: E49-50 EC50
Procedure, shortened: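 TaqMan qPCR on cell-lysate cDNA quantifies cryptic-exon inclusion from HTT intron 49. Lymphoblasts plated at 50,000 cells/well had received compound for 24 h, 0.15 nM-2.5 uM range, 0.1% DMSO.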

[3] = system: SMN protein in spinal muscular atrophy (SMA) patient fibroblasts (GM03813, Coriell); experiment: SMN protein assay, Mesoscale Discovery (MSD); type: cell-based, human; conditions: SMA patient fibroblasts GM03813, 48 hours, MSD; read-out: SMN2 protein EC50
Procedure, shortened: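 Absolute SMN levels were quantified by MSD against an SMN protein standard curve (1 μg/ml to 19.5 pg/ml) run on each plate. Samples were lysates of GM03813 patient fibroblasts (7000 cells/well) treated 48 hours with compound doses from 2.5 μM down to 0.6 nM.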

[4] = system: SMN FL and SMN Δ7 in spinal muscular atrophy (SMA) patient fibroblasts (GM03813, Coriell); experiment: Quantitative splicing assay (SMN), qPCR; type: cell-based, human; conditions: Homo sapiens, Fibroblast, 24 h, SMA patient fibroblasts GM03813, 24 h, qPCR; read-out: SMN2 Splicing FL EC50
Method: Spinal muscular atrophy (SMA) patient fibroblasts (GM03813, Coriell) are plated in 96-well plates at 50,000 cells/well. […] Treated cells are lysed and cDNA synthesized using the Fast Advanced Cells-to-Ct kit (Thermofisher A35378) according to the manufacturer's instructions. 2 μL of each cDNA are used in qPCR reactions. […] Reactions are run in a Quant Studio 6 qPCR instrument with default settings.

MDR1 (P-gp) = experiment: Blood-brain-barrier (BBB) penetration potential via MDCK-MDR1 permeability assay; conditions: dog; for Papp A→B at 120 min, 5 μM: MDCK-MDR1, pH 7.4, MDCK-MDR1: Papp A-B, A-B direction; for Papp B→A at 120 min, 5 μM: MDCK-MDR1, pH 7.4, MDCK-MDR1: Papp B-A, B-A direction
MDR1 = experiment: as above; conditions: dog, MDCK-MDR1, pH 7.4, MDCK-MDR1: Efflux, efflux ratio
[5] = system: MDR1-MDCK cell monolayers; experiment: as above; conditions: for MDCK-MDR1: % Recov A-B: A-B direction; for MDCK-MDR1: % Recov B-A: B-A direction

Row | SMILES | EC50 [1] [nM] | EC50 [2] [nM] | EC50 [3] [nM] | EC50 [4] [nM] | Papp A→B at 120 min, 5 μM (MDR1 (P-gp)) [×10⁻⁶ cm/s] | Papp B→A at 120 min, 5 μM (MDR1 (P-gp)) [×10⁻⁶ cm/s] | efflux ratio at 120 min, 5 μM (MDR1) | MDCK-MDR1: % Recov A-B [5] [%] | MDCK-MDR1: % Recov B-A [5] [%]
1 | CN(c1ccc(-c2ccc(-c3cnccn3)cc2O)nn1)[C@H]1C[C@@H]2CCC[C@@H](N2)[C@H]1F [Compound 24B, 2-(6-(((1R,2R,3S,5S)-2-fluoro-9-azabicyclo[3.3.1]nonan-3-yl)(methyl)amino)pyridazin-3-yl)-5-(pyrazin-2-yl)phenol] | 0.01 to 15 | 0.01 to 15 | 0.01 to 15 | 0.01 to 15 | 5.99 | 33.8 | 6 | 73 | 91
2 | Cc1cnc(-c2ccc(-c3ccc(N(C)[C@H]4C[C@@H]5CCC[C@@H](N5)[C@H]4F)nn3)c(O)c2)cn1 [Compound 26B, 2-(6-(((1R,2R,3S,5S)-2-fluoro-9-azabicyclo[3.3.1]nonan-3-yl)(methyl)amino)pyridazin-3-yl)-5-(5-methylpyrazin-2-yl)phenol] | 0.01 to 15 | 51 to 100 | 0.01 to 15 | 51 to 100 | 2.76 | 45.1 | 16 | 60 | 81
3 | Cc1ccc(-c2ccc(-c3ccc(N(C)[C@H]4C[C@@H]5CCC[C@@H](N5)[C@H]4F)nn3)c(O)c2)nn1 [Compound 27B, 2-(6-(((1R,2R,3S,5S)-2-fluoro-9-azabicyclo[3.3.1]nonan-3-yl)(methyl)amino)pyridazin-3-yl)-5-(6-methylpyridazin-3-yl)phenol] | 0.01 to 15 | 16 to 50 | 0.01 to 15 | 0.01 to 15 | 1.13 | 43.5 | 38 | 98 | 115
4 | CN(c1ccc(-c2ccc(-c3cnc(C#N)cn3)cc2O)nn1)[C@H]1C[C@@H]2CCC[C@@H](N2)[C@H]1F [Compound 28B, 5-(4-(6-(((1R,2R,3S,5S)-2-fluoro-9-azabicyclo[3.3.1]nonan-3-yl)(methyl)amino)pyridazin-3-yl)-3-hydroxyphenyl) pyrazine-2-carbonitrile] | 16 to 50 | 0.01 to 15 | 0.01 to 15 | 0.01 to 15 | 1.11 | 38.9 | 35 | 36 | 70
5 | COc1cnc(-c2ccc(-c3ccc(N(C)[C@@H]4C[C@H]5CCC[C@H](N5)[C@@H]4F)nn3)c(O)c2)cn1 [Compound 29A, 2-(6-(((1S,2S,3R,5R)-2-fluoro-9-azabicyclo[3.3.1]nonan-3-yl)(methyl)amino)pyridazin-3-yl)-5-(5-methoxypyrazin-2-yl)phenol] | 16 to 50 | 16 to 50 | 0.01 to 15 | 501 to 10000 | 1.85 | 12.6 | 7 | 26 | 60
6 | COc1cnc(-c2ccc(-c3ccc(N(C)[C@H]4C[C@@H]5CCC[C@@H](N5)[C@H]4F)nn3)c(O)c2)cn1 [Compound 29B, 2-(6-(((1R,2R,3S,5S)-2-fluoro-9-azabicyclo[3.3.1]nonan-3-yl)(methyl)amino)pyridazin-3-yl)-5-(5-methoxypyrazin-2-yl)phenol] | 0.01 to 15 | 16 to 50 | 0.01 to 15 | 501 to 10000 | 1.54 | 5.63 | 4 | 21 | 48
7 | CN(c1ccc(-c2ccc(C3=CCCC3)cc2O)nn1)[C@H]1C[C@@H]2CC[C@@H](N2)[C@H]1F [Compound 34B, 5-(cyclopent-1-en-1-yl)-2-(6-(((1R,2R,3S,5S)-2-fluoro-8-azabicyclo[3.2.1]octan-3-yl)(methyl)amino)pyridazin-3-yl)phenol] | 51 to 100 | 51 to 100 | 16 to 50 | 16 to 50 | 1.02 | 2.81 | 3 | 12 | 48
8 | CN(c1ccc(-c2ccc(C#N)cc2O)nn1)[C@@H]1C[C@H]2CCC[C@H](N2)[C@@H]1F [Compound 39A, 4-(6-(((1S,2S,3R,5R)-2-fluoro-9-azabicyclo[3.3.1]nonan-3-yl)(methyl)amino)pyridazin-3-yl)-3-hydroxybenzonitrile] | 16 to 50 | 16 to 50 | 0.01 to 15 | 16 to 50 | 8.1 | 40.5 | 5 | 83 | 76
9 | CN(c1ccc(-c2cc3cccnc3cc2O)nn1)[C@@H]1C[C@H]2CCC[C@H](N2)[C@@H]1F [Compound 41A, 6-(6-(((1S,2S,3R,5R)-2-fluoro-9-azabicyclo[3.3.1]nonan-3-yl)(methyl)amino)pyridazin-3-yl)quinolin-7-ol] | 0.01 to 15 | 51 to 100 | 0.01 to 15 | 16 to 50 | 2 | 48.1 | 24 | 64 | 98
10 | CN(c1ccc(-c2cc3cccnc3cc2O)nn1)[C@H]1C[C@@H]2CCC[C@@H](N2)[C@H]1F [Compound 41B, 6-(6-(((1R,2R,3S,5S)-2-fluoro-9-azabicyclo[3.3.1]nonan-3-yl)(methyl)amino)pyridazin-3-yl)quinolin-7-ol] | 0.01 to 15 | 16 to 50 | 0.01 to 15 | 16 to 50 | 2.57 | 36.7 | 14 | 60 | 95
11 | CN(c1ccc(-c2cc3occc(=O)c3cc2O)nn1)[C@@H]1C[C@H]2CC[C@H](N2)[C@@H]1F [Compound 43A, 7-(6-(((1S,2S,3R,5R)-2-fluoro-8-azabicyclo[3.2.1]octan-3-yl)(methyl)amino)pyridazin-3-yl)-6-hydroxy-4H-chromen-4-one] | 16 to 50 | 51 to 100 | 0.01 to 15 | 16 to 50 | 2.14 | 23.2 | 11 | 64 | 58
12 | CN(c1ccc(-c2cc3occc(=O)c3cc2O)nn1)[C@H]1C[C@@H]2CC[C@@H](N2)[C@H]1F [Compound 43B, 7-(6-(((1R,2R,3S,5S)-2-fluoro-8-azabicyclo[3.2.1]octan-3-yl)(methyl)amino)pyridazin-3-yl)-6-hydroxy-4H-chromen-4-one] | 0.01 to 15 | 0.01 to 15 | 0.01 to 15 | 0.01 to 15 | 2.32 | 28.3 | 12 | 66 | 48
13 | CN(c1ccc(-c2ccc(-c3nnco3)cc2O)nn1)[C@H]1C[C@@H]2CC[C@@H](N2)[C@H]1F [Compound 44B, 2-(6-(((1R,2R,3S,5S)-2-fluoro-8-azabicyclo[3.2.1]octan-3-yl)(methyl)amino)pyridazin-3-yl)-5-(1,3,4-oxadiazol-2-yl)phenol] | 0.01 to 15 | 0.01 to 15 | 16 to 50 | 0.01 to 15 | 8.2 | 54.7 | 7 | 91 | 92
14 | CNC(=O)c1cc(O)c(-c2ccc(N(C)[C@H]3C[C@@H]4CC[C@@H](N4)[C@H]3F)nn2)cc1F [Compound 47B, 2-fluoro-4-(6-(((1R,2R,3S,5S)-2-fluoro-8-azabicyclo[3.2.1]octan-3-yl)(methyl)amino)pyridazin-3-yl)-5-hydroxy-N-methylbenzamide] | 51 to 100 | 51 to 100 | 16 to 50 | 51 to 100 | 1.26 | 49.8 | 40 | 101 | 120
